Test results taken from patent publication US8906952B2, “Indole derivative or pharmaceutically acceptable salt thereof, preparation method thereof, and pharmaceutical composition for preventing or treating metabolic diseases containing same as active ingredient” (Korea Research Institute of Bioscience and Biotechnology, priority 2011, dated 2014).
Read-outs that look alike come from different tables or passages of the source.

Experiments:
Format in all cases: biochemical
human DGAT1 = biological target: T1, human DGAT1 (Homo sapiens, UniProt O75907); test: DGAT enzyme inhibition test, hDGAT1 enzyme from sf9 insect cells; settings: enzyme from sf9 cells overexpressing hDGAT1; read-out: hDGAT-1 (sf9) IC50
T1 construct: made in house; host or cells: sf9 insect cells
T1 sequence (O75907 1-488): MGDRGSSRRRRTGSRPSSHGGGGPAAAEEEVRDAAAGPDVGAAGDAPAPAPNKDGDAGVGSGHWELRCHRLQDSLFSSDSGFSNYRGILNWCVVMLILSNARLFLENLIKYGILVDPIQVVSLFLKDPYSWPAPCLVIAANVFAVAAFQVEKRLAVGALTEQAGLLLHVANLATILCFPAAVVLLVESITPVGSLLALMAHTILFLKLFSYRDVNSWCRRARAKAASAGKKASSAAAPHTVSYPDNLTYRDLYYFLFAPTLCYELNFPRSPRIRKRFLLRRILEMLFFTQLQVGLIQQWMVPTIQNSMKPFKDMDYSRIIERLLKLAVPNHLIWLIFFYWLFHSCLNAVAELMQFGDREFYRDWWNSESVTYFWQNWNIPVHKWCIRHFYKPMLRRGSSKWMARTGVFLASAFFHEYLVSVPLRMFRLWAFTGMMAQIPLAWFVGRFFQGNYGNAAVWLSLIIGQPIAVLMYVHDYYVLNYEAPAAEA
From the text: (§1) To investigate inhibitory effect of the compounds of Examples 1-33 against DGAT enzyme activity, DGAT enzyme inhibition and DGAT2 selectivity were investigated using zymogen including:
(§2) 1) hDGAT1 and hDGAT2 enzymes, derived from insect cell overexpressing human DGAT1 and DGAT2 (‘sf9’), respectively,
(§3) To be specific, for the purpose of measuring human-derived DGAT enzyme inhibitory activity, using the zymogen, including enzymes derived from insect cell overexpressing human DGAT1 and DGAT2 (‘sf9’), microsomal protein isolated from human duodenal adenocarcinoma (‘Hutu 80’), and microsomal protein isolated from rat, and according to Coleman et al., (Methods Enzymol., 98-103, 1992), and substrate including 1,2-diacylglycerol(Sigma, D0138) and [^14C]palmitoyl-CoA (Amersham, CFA583), the amount of radiation of [^14C]triacylglycerol produced after enzymatic reaction was measured.
(§4) To be more specific, to the reaction solution containing 175 mM Tris-HCl (pH 8.0), 20 μl bovine serum albumin (10 mg/ml), 100 mM magnesium chloride, 30 μM [^14C]palmitoyl CoA (0.02 μCi, Amersham) and 200 μM 1,2-dioleoylglycerol, reagent dissolved in dimethylsulfoxide (10.0 μl) was added. After introducing 100 to 200 μg isolated microsomal protein and allowing the same to react at 25° C. for 10 min, the reaction was stopped by adding 1.5 ml stop solution (2-propanol:heptane:water=80:20:2, v:v:v). To isolate the product of the reaction (i.e., [^14C]triacylglycerol), 1 ml heptane and 0.5 ml distilled water were added and then decocted. After taking 1 ml supernatant, 2 ml alkaline ethanol solution (ethanol:0.5 N sodium hydroxide:water=50:10:40, v:v:v) were added and then decocted. After taking 0.65 ml supernatant from the decoction, the amount of radiation was measured with liquid scintillation counter (LSC). The DGAT inhibitory activity was calculated with Mathematical Expression 1 below:
(§5) T denotes cpm of experimental group in which the enzymatic reaction solution was treated with the sample,
(§6) C denotes cpm of control group in which the enzymatic reaction solution was not treated with the sample, and
(§7) B denotes cpm of control group treated with the sample without zymogen.

hDGAT-1 (HuTu 80) = biological target: T2, hDGAT-1 (HuTu 80) (Homo sapiens, UniProt O75907); test: DGAT enzyme inhibition test, microsomal protein from human duodenal adenocarcinoma (Hutu 80); settings: microsomal protein from HuTu 80
T2 construct: microsomal protein isolated from human duodenal adenocarcinoma (‘Hutu 80’); endogenous in cells; host or cells: HuTu 80 human duodenal adenocarcinoma cells (microsomes)
T2 sequence (O75907 1-488): T1 sequence (O75907 1-488)
From the text: as §1
2) DGAT enzyme derived from human duodenal adenocarcinoma (‘Hutu 80’), and
as §3, §4, §5, §6, §7

DGAT-1 (rat liver) = biological target: T3, DGAT-1 (rat liver) (Rattus norvegicus, UniProt Q9ERM3); test: DGAT enzyme inhibition test, rat liver-derived DGAT enzyme; settings: rat liver microsomal protein
T3 construct: microsomal protein isolated from rat; from tissue; host or cells: rat liver microsomes
T3 sequence (Q9ERM3 1-498): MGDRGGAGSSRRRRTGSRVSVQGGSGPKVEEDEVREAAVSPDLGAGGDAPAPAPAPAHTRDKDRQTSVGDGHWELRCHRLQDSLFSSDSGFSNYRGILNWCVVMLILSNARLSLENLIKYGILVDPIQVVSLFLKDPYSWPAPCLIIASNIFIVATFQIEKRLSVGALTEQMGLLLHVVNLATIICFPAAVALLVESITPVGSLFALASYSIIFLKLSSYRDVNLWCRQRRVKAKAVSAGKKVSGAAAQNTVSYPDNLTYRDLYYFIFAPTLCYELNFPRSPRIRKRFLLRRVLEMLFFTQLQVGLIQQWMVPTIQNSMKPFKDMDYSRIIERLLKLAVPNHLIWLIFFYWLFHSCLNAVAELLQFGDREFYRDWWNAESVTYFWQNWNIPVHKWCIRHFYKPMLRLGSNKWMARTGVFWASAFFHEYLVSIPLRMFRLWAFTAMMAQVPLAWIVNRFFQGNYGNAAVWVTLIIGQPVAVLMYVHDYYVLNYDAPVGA
From the text: as §1
3) rat liver-derived DGAT enzyme.
as §3, §4, §5, §6, §7

human DGAT2 = biological target: T4, human DGAT2 (Homo sapiens, UniProt Q96PD7); test: DGAT enzyme inhibition test, hDGAT2 enzyme from sf9 insect cells (DGAT2 selectivity)
T4 construct: made in house; host or cells: sf9 insect cells
T4 sequence (Q96PD7 1-388): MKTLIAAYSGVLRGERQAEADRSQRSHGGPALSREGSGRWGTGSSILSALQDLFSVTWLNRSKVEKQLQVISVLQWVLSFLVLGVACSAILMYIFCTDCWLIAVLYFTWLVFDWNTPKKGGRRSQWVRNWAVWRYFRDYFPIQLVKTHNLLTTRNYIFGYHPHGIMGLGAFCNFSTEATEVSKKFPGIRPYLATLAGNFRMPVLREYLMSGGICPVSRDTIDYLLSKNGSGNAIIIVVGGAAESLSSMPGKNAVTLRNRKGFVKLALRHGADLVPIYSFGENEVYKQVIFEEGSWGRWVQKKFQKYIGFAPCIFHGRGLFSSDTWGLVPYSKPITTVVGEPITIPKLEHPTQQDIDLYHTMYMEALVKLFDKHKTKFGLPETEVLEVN
From the text: as §1, §2, §3, §4, §5, §6, §7

[1] = 10 μM, enzyme from sf9 cells overexpressing hDGAT2, read-out: hDGAT-2 (sf9) inhibition rate(%)at 10 μM
[2] = concentration of 10 μM, read-out: hDGAT2 inhibition

Row | SMILES | IC50 (human DGAT1) [µM] | IC50 (hDGAT-1 (HuTu 80)) [µM] | IC50 (DGAT-1 (rat liver)) [µM] | inhibition at 10 µM (human DGAT2; [1]) [%] | inhibition at 10 µM (human DGAT2; [2]) [%]
1 | CC(C)N(NC(=O)c1ccccc1)C(=O)/C=C/c1cn(C(=O)OC(C)(C)C)c2ccccc12 [Example 1, (E)-tert-butyl 3-(3-(2-benzoyl-1-isopropylhydrazinyl)-3-oxoprop-1-enyl)-1H-indole-1-carboxylate] | 9.6 | 1.4 | 1.1 | 7.5 | < 11
2 | CC(C)N(NC(=O)c1ccccn1)C(=O)/C=C/c1cn(C(=O)OC(C)(C)C)c2ccccc12 [Example 2, (E)-tert-butyl 3-(3-(1-isopropyl-2-picolinoylhydrazinyl)-3-oxoprop-1-enyl)-1H-indole-1-carboxylate] | > 100 | 11.2 | 7.6 | < 0 | 
3 | CC(C)N(NC(=O)c1cccnc1)C(=O)/C=C/c1cn(C(=O)OC(C)(C)C)c2ccccc12 [Example 3, (E)-tert-butyl 3-(3-(1-isopropyl-2-nicotinoylhydrazinyl)-3-oxoprop-1-enyl)-1H-indole-1-carboxylate] | > 100 | 6.5 | 3.9 | < 0 | 
4 | CC(C)N(NC(=O)c1cccc(O)c1)C(=O)/C=C/c1cn(C(=O)OC(C)(C)C)c2ccccc12 [Example 4, (E)-tert-butyl 3-(3-(2-(3-hydroxybenzoyl)-1-isopropylhydrazinyl)-3-oxoprop-1-enyl)-1H-indole-1-carboxylate] | > 100 | 12.4 | 22.4 | < 0 | 
5 | CC(C)N(NC(=O)c1ccc(O)cc1)C(=O)/C=C/c1cn(C(=O)OC(C)(C)C)c2ccccc12 [Example 5, (E)-tert-butyl 3-(3-(2-(4-hydroxybenzoyl)-1-isopropylhydrazinyl)-3-oxoprop-1-enyl)-1H-indole-1-carboxylate] | 22.5 | 6.6 | 16.3 | < 0 | < 11
6 | COc1cccc(C(=O)NN(C(=O)/C=C/c2cn(C(=O)OC(C)(C)C)c3ccccc23)C(C)C)c1 [Example 6, (E)-tert-butyl 3-(3-(1-isopropyl-2-(3-methoxybenzoyl)hydrazinyl)-3-oxoprop-1-enyl)-1H-indole-1-carboxylate] | > 100 | 5.2 | 2.1 | 0.3 | 
7 | COc1ccc(C(=O)NN(C(=O)/C=C/c2cn(C(=O)OC(C)(C)C)c3ccccc23)C(C)C)cc1 [Example 7, (E)-tert-butyl 3-(3-(1-isopropyl-2-(4-methoxybenzoyl)hydrazinyl)-3-oxoprop-1-enyl)-1H-indole-1-carboxylate] | > 100 | 11.6 | 8.7 | < 0 | 
8 | CC(C)N(NC(=O)c1cccc(OCCN2CCOCC2)c1)C(=O)/C=C/c1cn(C(=O)OC(C)(C)C)c2ccccc12 [Example 8, (E)-tert-butyl 3-(3-(1-isopropyl-2-(3-(2-morpholinoethoxy)benzoyl)hydrazinyl)-3-oxoprop-1-enyl)-1H-indole-1-carboxylate] | > 100 | 9.3 | 2.5 | < 0 | 
9 | CC(C)N(NC(=O)c1ccc(OCCN2CCOCC2)cc1)C(=O)/C=C/c1cn(C(=O)OC(C)(C)C)c2ccccc12 [Example 9, (E)-tert-butyl 3-(3-(1-isopropyl-2-(4-(2-morpholinoethoxy)benzoyl)hydrazinyl)-3-oxoprop-1-enyl)-1H-indole-1-carboxylate] | > 100 | 19.6 | 11.8 | < 0 | 
10 | COCCOc1cccc(C(=O)NN(C(=O)/C=C/c2cn(C(=O)OC(C)(C)C)c3ccccc23)C(C)C)c1 [Example 10, (E)-tert-butyl 3-(3-(1-isopropyl-2-(3-(2-methoxyethoxy)benzoyl)hydrazinyl)-3-oxoprop-1-enyl)-1H-indole-1-carboxylate] | 36.4 | 7.7 | 2.6 | 8.3 | < 11
11 | CC(C)N(NC(=O)c1cccc(Br)c1)C(=O)/C=C/c1cn(C(=O)OC(C)(C)C)c2ccccc12 [Example 12, (E)-tert-butyl 3-(3-(2-(3-bromobenzoyl)-1-isopropylhydrazinyl)-3-oxoprop-1-enyl)-1H-indole-1-carboxylate] | 6.8 | 2.6 | 1.7 | 3.9 | < 11
12 | CC(C)N(NC(=O)c1ccc(F)cc1)C(=O)/C=C/c1cn(C(=O)OC(C)(C)C)c2ccccc12 [Example 44, (E)-tert-butyl 3-(3-(2-(4-fluorobenzoyl)-1-isopropylhydrazinyl)-3-oxoprop-1-enyl)-1H-indole-1-carboxylate] | 2.1 |  |  | 28.9 | 
13 | CC(C)CCn1cc(/C=C/C(=O)N(NC(=O)c2ccc(F)cc2)C(C)C)c2ccccc21 [Example 46, (E)-4-fluoro-N′-(3-(1-isopentyl-1H-indol-3-yl)acryloyl)-N′-isopropylbenzohydrazide] | 1 |  |  | 64 | 
14 | Cc1cccc(C(=O)NN(C(=O)/C=C/c2cn(C(=O)OC(C)(C)C)c3ccccc23)C(C)C)c1 [Example 47, (E)-tert-butyl 3-(3-(1-isopropyl-2-(3-methylbenzoyl)hydrazinyl)-3-oxoprop-1-enyl)-1H-indole-1-carboxylate] | 2.9 |  |  | 34.1 | 
15 | Cc1ccc(C(=O)NN(C(=O)/C=C/c2cn(C(=O)OC(C)(C)C)c3ccccc23)C(C)C)cc1 [Example 48, (E)-tert-butyl 3-(3-(1-isopropyl-2-(4-methylbenzoyl)hydrazinyl)-3-oxoprop-1-enyl)-1H-indole-1-carboxylate] | 9.8 |  |  | 22.1 | 
16 | CC(C)=CCn1cc(/C=C/C(=O)N(NC(=O)c2ccc(F)cc2)C(C)C)c2ccccc21 [Example 49, (E)-4-fluoro-N′-isopropyl-N′-(3-(1-(3-methylbut-2-enyl)-1H-indol-3-yl)acryloyl)benzohydrazide] | 1.5 |  |  | 28 | 
